Tests used:
[1] = system: Acidithiobacillus ferrooxidans strain Wenelen; experiment: Batch culture of A. ferrooxidans Wenelen with FIC versus control: biomass and EPS production; type: cell-based; conditions: for [EPS] ajusted: fitted curve
Description: To compare biomass and EPS production in a Acidithiobacillus ferrooxidans, a culture with FIC and a control one, without FIC, were conducted.
Both cultures were carried in 1 L of a 9K medium described in Table 2, with the addition of 30 g/L of ferrous sulfate, with pH set at 1.8, agitation of 250 rpm and air flux of 1 VVM.
In both cultures, the same initial biomass concentration of 1*10^7 cell/mL was inoculated. In sample 1, 80 μM of FIC was added. Cultures were kept for 288 hours and EPS and biomass concentration was periodically measured. Afterwards, specific productivity of EPS was calculated.

Aconitase (EC 4.2.1.3) = conditions: cited from earlier work
[2] = 80 μM FIC, from hours 48 to 120

fluoroisocitrate [FIC]
amount of EPS per cell (pg EPS/cell) relative to control ([1]; 80 μM FIC, 192 hours): 18 times
EPS yield (pg EPS/cell) relative to control sample ([1]; 80 μM FIC, at 120 hours of culture): 2 times
biomass relative to control sample ([1]; 80 μM FIC, between 120 and 288 hours): lower by one magnitude order
difference in growth rate or EPS production versus control sample ([1]; 80 μM FIC, first 48 hours): no significant differences
EPS production [1, 2]: strong increase
biomass [1, 2]: remains practically constant
EPS ([1]; 80 μM FIC, time 0.0001 hours): 28 mg/L
cel/ml (biomass concentration) ([1]; 80 μM FIC, time 0.0001 hours): 4.69E+06 cel/ml
pg EPS/cel ([1]; 80 μM FIC, time 0.0001 hours): 5.97 pg EPS/cel
[EPS] ajusted ([1]; 80 μM FIC, time 0.0001 hours): 28.00 mg/L
EPS ([1]; 80 μM FIC, time 24 hours): 33.5 mg/L
cel/ml (biomass concentration) ([1]; 80 μM FIC, time 24 hours): 7.81E+06 cel/ml
pg EPS/cel ([1]; 80 μM FIC, time 24 hours): 4.29 pg EPS/cel
[EPS] ajusted ([1]; 80 μM FIC, time 24 hours): 36.49 mg/L
EPS ([1]; 80 μM FIC, time 48 hours): 74 mg/L
cel/ml (biomass concentration) ([1]; 80 μM FIC, time 48 hours): 6.66E+07 cel/ml
pg EPS/cel ([1]; 80 μM FIC, time 48 hours): 1.11 pg EPS/cel
[EPS] ajusted ([1]; 80 μM FIC, time 48 hours): 109.28 mg/L
EPS ([1]; 80 μM FIC, time 120 hours): 341 mg/L
cel/ml (biomass concentration) ([1]; 80 μM FIC, time 120 hours): 7.69E+07 cel/ml
pg EPS/cel ([1]; 80 μM FIC, time 120 hours): 4.44 pg EPS/cel
[EPS] ajusted ([1]; 80 μM FIC, time 120 hours): 306.36 mg/L
EPS ([1]; 80 μM FIC, time 144 hours): 350 mg/L
cel/ml (biomass concentration) ([1]; 80 μM FIC, time 144 hours): 4.16E+07 cel/ml
pg EPS/cel ([1]; 80 μM FIC, time 144 hours): 8.42 pg EPS/cel
[EPS] ajusted ([1]; 80 μM FIC, time 144 hours): 318.74 mg/L
EPS ([1]; 80 μM FIC, time 168 hours): 372.5 mg/L
cel/ml (biomass concentration) ([1]; 80 μM FIC, time 168 hours): 3.41E+07 cel/ml
pg EPS/cel ([1]; 80 μM FIC, time 168 hours): 10.94 pg EPS/cel
[EPS] ajusted ([1]; 80 μM FIC, time 168 hours): 324.73 mg/L
EPS ([1]; 80 μM FIC, time 192 hours): 348.5 mg/L
cel/ml (biomass concentration) ([1]; 80 μM FIC, time 192 hours): 1.41E+07 cel/ml
pg EPS/cel ([1]; 80 μM FIC, time 192 hours): 24.78 pg EPS/cel
[EPS] ajusted ([1]; 80 μM FIC, time 192 hours): 327.88 mg/L
EPS ([1]; 80 μM FIC, time 216 hours): 315 mg/L
cel/ml (biomass concentration) ([1]; 80 μM FIC, time 216 hours): 1.38E+07 cel/ml
pg EPS/cel ([1]; 80 μM FIC, time 216 hours): 22.91 pg EPS/cel
[EPS] ajusted ([1]; 80 μM FIC, time 216 hours): 329.65 mg/L
EPS ([1]; 80 μM FIC, time 288 hours): 305 mg/L
cel/ml (biomass concentration) ([1]; 80 μM FIC, time 288 hours): 1.94E+07 cel/ml
pg EPS/cel ([1]; 80 μM FIC, time 288 hours): 15.74 pg EPS/cel
[EPS] ajusted ([1]; 80 μM FIC, time 288 hours): 331.83 mg/L
effect on EPS and biomass production in culture ([1]; A. ferroxidans culture): enhanced EPS production in detriment of biomass production
EPS specific productivity versus control ([1]; FIC cultures, after the first 30 hours): significant increase
increase in EPS specific productivity versus control ([1]; FIC cultures, around the 50 hours of culture, exponential growth phase): ~30%
inhibition of aconitase (Aconitase (EC 4.2.1.3)): specifically inhibited

— patent publication US8927246B2, “Method to increase the production of extracellular polymeric substances (EPS) in a Acidithiobacillus ferrooxidans culture by the inhibition of enzymes of tricarboxilic acid cycle” (Universidad de Chile, priority 2010, dated 2015)
